In one data set the test system is mKCa1.1. It is filed as cell-based, mice. As to conditions: HEK 293 cells. From the text: (§1) We, therefore, aimed at testing the pharmacological activity of sCm39 on a battery of various potassium and sodium ion channels. Among the tested channels were six members of human voltage-gated K^+ (hKV) channels from Shaker family, hKV1.1-hKV1.6 (Figure 3A–F) and three members of Ca^2+-activated potassium channel; hKCa2.2 (SK2, Figure 3I), the small-conductance Ca^2+-activated channel; hKCa3.1 (IKCa1, SK4. Figure 3J), the intermediate-conductance Ca^2+-activated channel expressed in T lymphocytes; and mKCa1.1 (BK, Slo1, MaxiK, Figure 3H), the large-conductance voltage- and Ca^2+-activated channel of mice. In addition, we also screened the effect of Cm39 on hKV11.1 (hERG1, Figure 3G), a voltage-gated cardiac K^+ channel, and two human voltage-gated sodium (hNaV) channels, hNaV1.4 (Figure 3K) and hNaV1.5 (Figure 3L), expressed in skeletal and cardiac muscles, respectively. These ion channels were heterologously expressed in the CHO or HEK cell lines except for KV1.3. Human peripheral T lymphocytes. They were stimulated with Phytohemagglutinin A (PHA) to increase the KV1.3 channel expression, and Ca^2+-free intracellular solution was used to avoid KCa3.1 channel activation. Appropriate depolarization protocols were used to record ionic currents in voltage-clamped cells (see Figure 3 insets and Material and Methods for details). Freshly dissolved sCm39 in extracellular solution was applied at 1 µM concentration on the cell using a custom-built micro-perfusion system at ~200 µL/min flow rate. […]
Whole-cell currents were recorded in voltage-clamped cells following standard protocols by using a Multiclamp 700B amplifier connected to a computer with Axon Digidata1440 digitizer and for data acquisition, Clampex 10.7 software was used (Molecular Devices). […]

For a further data set, the system named is hKV1.1. It is filed as cell-based, human. As to conditions: CHO cells. From the text: We, therefore, aimed at testing the pharmacological activity of sCm39 on a battery of various potassium and sodium ion channels. Among the tested channels were six members of human voltage-gated K^+ (hKV) channels from Shaker family, hKV1.1-hKV1.6 (Figure 3A–F) and three members of Ca^2+-activated potassium channel; hKCa2.2 (SK2, Figure 3I), the small-conductance Ca^2+-activated channel; hKCa3.1 (IKCa1, SK4. Figure 3J), the intermediate-conductance Ca^2+-activated channel expressed in T lymphocytes; and mKCa1.1 (BK, Slo1, MaxiK, Figure 3H), the large-conductance voltage- and Ca^2+-activated channel of mice. In addition, we also screened the effect of Cm39 on hKV11.1 (hERG1, Figure 3G), a voltage-gated cardiac K^+ channel, and two human voltage-gated sodium (hNaV) channels, hNaV1.4 (Figure 3K) and hNaV1.5 (Figure 3L), expressed in skeletal and cardiac muscles, respectively. These ion channels were heterologously expressed in the CHO or HEK cell lines except for KV1.3. Human peripheral T lymphocytes. They were stimulated with Phytohemagglutinin A (PHA) to increase the KV1.3 channel expression, and Ca^2+-free intracellular solution was used to avoid KCa3.1 channel activation. Appropriate depolarization protocols were used to record ionic currents in voltage-clamped cells (see Figure 3 insets and Material and Methods for details). Freshly dissolved sCm39 in extracellular solution was applied at 1 µM concentration on the cell using a custom-built micro-perfusion system at ~200 µL/min flow rate.
Chinese hamster ovary (CHO) cells (gift from Yosef Yarden, Weizmann Institute of Science, Rehovot, Israel) were maintained by culturing in Dulbecco’s modified Eagle medium (DMEM, Gibco) supplemented with 2 mM L-glutamine, 10% FBS, 100 µg/mL streptomycin and 100 U/mL penicillin-g (Sigma-Aldrich) at a density of 0. 5−1×10^6 cells per mL in a humidified incubator at 37 °C and 5% CO2. Cells were passaged 3 times in a week following a 2–5 min incubation in 0.05% trypsin-EDTA solution at 37 °C. Cultures were used up to passage number 20. PCR-based tests were routinely used to detect mycoplasma infection, only mycoplasma-free cultures were used for experiments.
Those plasmids which lack a fluorescent tag were co-transfected with a plasmid encoding GFP. Transfections were performed at a GFP:channel DNA molar ratio of 1:10 using the Lipofectamine 2000 kit (Invitrogen) according to the manufacturer’s protocol. […] Generally, currents were recorded 24 to 48 h post transfection.
For the measurement of KV1.x, mKCa1.1 and NaV1.x currents the extracellular solution was composed of (in mM) 145 NaCl, 5 KCl, 2.5 CaCl2, 1 MgCl2, 10 HEPES and 5.5 glucose, pH 7.35. In the HK-150 and Na^+-free bath solution bath all Na^+ was substituted by K^+ or Choline-Cl, respectively, other ingredients remained unchanged. In the various TEA^+-containing solutions, Na^+ was substituted by tetraethylammonium-Cl in equimolar concentration (Figure 3). The bath solution for KCa2.2 and KCa3.1 consisted of (in mM) 145 L-Aspartic Na^+ salt, 5 KCl, 2.5 CaCl2, 1 MgCl2, 5.5 glucose and 10 HEPES, pH 7.4 and for KV11.1 (in mM) 140 Choline-Cl, 5 KCl, 2 MgCl2, 2 CaCl2, 10 HEPES, 20 glucose and 0.1 CdCl2, pH 7.35. The osmolarity of bath solutions was ranging between 302 to 308 mOsm/L. A total of 0.1 mg/mL bovine serum albumin (BSA, Sigma-Aldrich, Budapest, Hungary) was added to all the bath solutions before the patch-clamp assay to avoid toxin adsorption to the plastic surfaces of the perfusion system. Internal or pipette solution for recording KV1.x and mKCa1.1 currents consisted of (in mM) 140 KF, 2 MgCl2, 1 CaCl2, 11 EGTA and 10 HEPES, pH 7.22.

A further data set relates to hNaV1.5. Nature of the data set: Whole-cell patch-clamp, block of NaV1.5 current. The class given is cell-based, human. As to conditions: CHO cells.
Text: as §1, with “activation.” for “activation. Appropriate depolarization protocols were used to record ionic currents in voltage-clamped cells (see Figure 3 insets and Material and Methods for details). Freshly dissolved sCm39 in extracellular solution was applied at 1 µM concentration on the cell using a custom-built micro-perfusion system at ~200 µL/min flow rate.”
Those plasmids which lack a fluorescent tag were co-transfected with a plasmid encoding GFP. […] Generally, currents were recorded 24 to 48 h post transfection. […]
(The patch-clamp technique gives a direct electrical read-out from membranes.)

“Also recorded” adds a separate entry of the source.

In the case of `CC[C@H](C)[C@@H]1NC(=O)[C@H](C)NC(=O)[C@H](C)NC(=O)[C@H](CCCCN)NC(=O)[C@@H]2CSSC[C@@H](C(=O)N[C@@H](Cc3ccc(O)cc3)C(=O)N[C@@H](Cc3ccc(O)cc3)C(=O)O)NC(=O)[C@H](CCCCN)NC(=O)[C@@H]3CSSC[C@H](NC(=O)[C@H](CCC(=O)O)NC(=O)[C@H](CO)NC(=O)[C@H](CO)NC(=O)[C@H](CO)NC(=O)[C@H](CCCCN)NC(=O)[C@@H](NC(=O)[C@H](CCCCN)NC(=O)[C@H](Cc4c[nH]cn4)NC(=O)[C@H](CC(N)=O)NC(=O)[C@@H](NC(=O)[C@H](Cc4ccccc4)NC(=O)[C@@H](N)[C@@H](C)O)[C@@H](C)CC)CSSC[C@H](NC(=O)[C@H](CCCCN)NC(=O)CNC(=O)[C@H](CO)NC(=O)[C@H](C)NC(=O)[C@H](CCCNC(=N)N)NC(=O)CNC1=O)C(=O)N[C@@H]([C@@H](C)CC)C(=O)N[C@@H](CC(N)=O)C(=O)N[C@@H](CO)C(=O)N[C@@H]([C@@H](C)O)C(=O)N3)C(=O)N[C@@H](CC(C)C)C(=O)N1CCC[C@H]1C(=O)N[C@@H](C)C(=O)N2` [Cm39], the “inhibition (in words)” value in the data set on mKCa1.1 (1 μM), with hKV1.1 (1 μM) and with hNaV1.5 (1 μM) was “does not inhibit; also recorded: did not show any effect” in each case. Further, the decrease in current in the data set on mKCa1.1 (1 µM, 3−5 min, n = 3−5) is listed as under 3%; in the data set with hKV1.1 (1 µM, 3−5 min, n = 3−5) it was under 3%; with hNaV1.5 (1 µM, 3−5 min, n = 3−5) it was under 3%.

The values above are taken from PMC9866218, “Characterization and Chemical Synthesis of Cm39 (α-KTx 4.8): A Scorpion Toxin That Inhibits Voltage-Gated K^+ Channel KV1.2 and Small- and Intermediate-Conductance Ca^2+-Activated K^+ Channels KCa2.2 and KCa3.1” (Toxins, 2023).
